Data set [1] concerns Mus musculus. As to the kind of experiment: Toxicity against mouse assessed as protection against maximal-electroshock-induced tonic seizure at 5 mg/kg. The data set is classed as organism-based. On the set-up: dose 5 mg/kg. The note with it: in vivo.
In data set [2] the test system is Rattus norvegicus. Description: Antiallodynic activity in CD rat SNL pain model assessed as increase in paw withdrawal threshold at 20 mg/kg, po measured after 90 mins. The data set is classed as functional, organism-based. On the set-up: dose 20 mg/kg.
Data set [3] relates to Rattus norvegicus. As to the kind of experiment: Toxicity against CD rat SNL pain model assessed as hypalgesic activity on the contralateral side of paw at 40 mg/kg, po at 90 mins relative to control. The data set is classed as organism-based. On the set-up: dose 40 mg/kg, route oral. The note with it: in vivo, 1.5 h.
Data set [4] concerns Mus musculus. As to the kind of experiment: Toxicity against mouse assessed as protection against pentetrazole-induced death at 15 mg/kg. The conditions noted are these: in vivo. The data set is classed as organism-based. On the set-up: dose 15 mg/kg.
The test system of data set [5] is Rattus norvegicus. Description: Antiallodynic activity in CD rat SNL pain model assessed as increase in paw withdrawal threshold at 20 mg/kg, po measured from 30 to 60 mins. In kind it is functional, organism-based. On the set-up: dose 20 mg/kg.
In data set [6] the test system is Rattus norvegicus. Description: Toxicity against CD rat SNL pain model assessed as hypalgesic activity on the contralateral side of paw at 20 mg/kg, po at 90 mins relative to control. On the set-up: dose 20 mg/kg, route oral. The note with it: in vivo, 1.5 h. In kind it is organism-based.
Data set [7] concerns Mus musculus. Description: Toxicity against mouse assessed as protection against pentetrazole-induced death at 5 mg/kg. The data set is classed as organism-based. On the set-up: dose 5 mg/kg. The conditions noted are these: in vivo.
Data set [8] concerns Mus musculus. Description: Toxicity against mouse assessed as protection against maximal-electroshock-induced tonic seizure at 15 mg/kg. The data set is classed as organism-based. On the set-up: dose 15 mg/kg. The note with it: in vivo.
Data set [9] concerns Mus musculus. Description: Toxicity against mouse assessed as protection against maximal-electroshock-induced tonic seizure at 45 mg/kg. In kind it is organism-based. On the set-up: dose 45 mg/kg. The note with it: in vivo.
Data set [10] relates to Mus musculus. As to the kind of experiment: Toxicity against mouse assessed as protection against pentetrazole-induced death at 45 mg/kg. The note with it: in vivo. On the set-up: dose 45 mg/kg. The data set is classed as organism-based.
Data set [11] relates to Rattus norvegicus. Description: Antiallodynic activity in CD rat SNL pain model assessed as increase in paw withdrawal threshold at 60 mg/kg, po measured up to 180 mins. The data set is classed as functional, organism-based. On the set-up: dose 60 mg/kg.
Data set [12] concerns Rattus norvegicus. As to the kind of experiment: Toxicity against rat assessed as somnolence at 30 mg/kg. In kind it is organism-based. The conditions noted are these: in vivo. On the set-up: dose 30 mg/kg.
Data set [13] has as its system Rattus norvegicus. As to the kind of experiment: Antiallodynic activity in CD rat SNL pain model assessed as increase in paw withdrawal threshold at 20 mg/kg, po measured from 30 to 180 mins. The data set is classed as functional, organism-based. On the set-up: dose 20 mg/kg.
Data set [14] has as its system Rattus norvegicus. As to the kind of experiment: Antiallodynic activity in CD rat SNL pain model assessed as increase in paw withdrawal threshold at 20 mg/kg, po measured at 90 mins. On the set-up: dose 20 mg/kg. The data set is classed as functional, organism-based.
The test system of data set [15] is Rattus norvegicus. Description: Antiallodynic activity in CD rat SNL pain model assessed as increase in paw withdrawal threshold at 40 mg/kg, po measured from 30 to 180 mins. In kind it is functional, organism-based. On the set-up: dose 40 mg/kg.

The source made the active and inactive calls.

Consider `C[Si](C)(C)C[C@@H](CN)CC(=O)O`, for which the Activity entry in the data set with Mus musculus [1], in the data set on Rattus norvegicus [3], in the data set on Mus musculus [4], with Rattus norvegicus [6], with Mus musculus [7] and in the data set with Mus musculus [8] was “Non-toxic” in each case. Further, the Activity result in the data set with Mus musculus [9] and with Mus musculus [10] was “Non-toxic” throughout. Further, the outcome in the data set on Rattus norvegicus [2] was inactive. Further, the result with Rattus norvegicus [5] was Active.

For `C[Si](C)(C)CC(CN)CC(=O)O` (racemic), the outcome in the data set on Rattus norvegicus [11] was Active.

Take `CC(C)C[C@H](CN)CC(=O)O` [PREGABALIN]: the Activity entry with Rattus norvegicus [12], in the data set with Rattus norvegicus [6], in the data set with Mus musculus [8], with Mus musculus [9] and with Mus musculus [10] was “Toxic” each time. Moreover, the outcome with Rattus norvegicus [13] and with Rattus norvegicus [14] was Active.

In the case of `C[Si](C)(C)C[C@H](CN)CC(=O)O`, the Activity result with Mus musculus [1], in the data set with Rattus norvegicus [3], with Mus musculus [4], with Rattus norvegicus [6], with Mus musculus [7] and with Mus musculus [8] was “Non-toxic” in each case. The Activity result in the data set on Mus musculus [9] and with Mus musculus [10] was “Non-toxic” each time. Further, the outcome in the data set with Rattus norvegicus [15] was Active. In the data set with Rattus norvegicus [13], the outcome was inactive.
